Results taken from US20040151761A1, “Methods and compositions utilizing astaxanthin” (priority 2003, published 2004).
Entries after “also recorded” stand apart in the source; their conditions may differ.

Assays:
splenocyte = settings: mice (Chew et al., 1999); cited from earlier work
[1] = test system: humoral and cell-mediated immune responses; settings: cited from earlier work
[2] = test system: Canine thyroid adenocarcinoma cells (target cells); assay: Natural killer cell cytotoxic activity in dogs; format: in vivo, dog
Method: Natural killer cell cytotoxic activity. Canine thyroid adenocarcinoma cells (target cells) were resuspended to 2×10^5 cells/mL in Dulbecco's Modified Eagles Medium (Sigma, St. Louis, Mo.) containing 100 mL/L fetal bovine serum, 100 U/mL penicillin, and […] streptomycin sulfate. Ficol-separated PBMC (effector cells) were resuspended to 1×10^6 and 2×10^6 cells/mL and 100 microliters added to the target cells in 96-well flat-bottom plates to provide effector:taiget ratios of 5:1 and 10:1. After incubating for 8 h, 20 microliters (5 g/L) of MTT were added and incubated for 4 hours. The supernatant was removed and the formazan resuspended in 100 microliters isopropanol. Optical density was measured at 550 nm and the percent of specific cytotoxicity calculated as follows:
% Specific cytotoxicity=1−(ODeffector+target−ODeffector)/ODtarget×100.

[3] = test system: Cutaneous delayed-type hypersensitivity (DTH); assay: Delayed-type hypersensitivity (skin induration) in cats; format: in vivo, cat
[4] = Plasma astaxanthin in cats fed astaxanthin diets; format: in vivo, cat
Method: Female domestic short hair cats (8 to 9 months old; 3.2±0.04 kg body weight; Liberty Farms, Waverly, N.Y.) were randomly assigned (n=14/diet) to be fed 0, 1, 5, or 10 mg astaxanthin (109 g astaxanthin/kg oleoresin concentrate from Haematococcus pluvialis, astraZanthin™, La Haye Laboratories, Redmond, Wash.) daily (based on an average intake of 90 g food/day) for 12 weeks. Astaxanthin was incorporated into a commercial basal diet (The Iams Co., Lewisburg, Ohio.) and fed ad libitum. The diet composition was as follows (g/kg): 63.1 moisture, 350.6 protein, 62.7 ash, 213.6 fat, 10.0 Ca, 7.6 P, and 7.1 crude fiber, 21,707 kJ/kg gross energy; the n-6:n-3 fatty acid ratio was 9.9. Cats were housed in a temperature (20 to 22° C.) and light-controlled (14 hour light) facility and body weights were determined at weeks 0, 4, 8 and 12. Blood was collected at week 0 and 8 to assess immune function. To assess the dietary effects of astaxanthin on immune response after an antigenic challenge, all cats were vaccinated (Felocell™, Pfizer, N.Y.) two times (weeks 8 and 10) and blood was collected at week 12 to measure the same immune parameters.

## CC1=C(/C=C/C(C)=C/C=C/C(C)=C/C=C/C=C(C)/C=C/C=C(C)/C=C/C2=C(C)C(=O)C(O)CC2(C)C)C(C)(C)CC(O)C1=O (stereo not drawn) [astaxanthin, 3,3′-dihydroxy-beta, beta-carotene-4,4′-dione]
splenocyte
  mitogen-induced splenocyte proliferation: enhance mitogen-induced splenocyte proliferation
[1]; rodents (Chew et al., 1999b)
  cell-mediated immune response: enhanced
[1]; rodents (Jyonouchi et al., 1994)
  T cell-mediated antibody production: increased T cell-mediated antibody production
[1]; rodents (Jyonouchi et al., 1995)
  humoral immune response: enhanced
[2]; week 6
  NK cell activity: dose-dependent increase in NK cell activity
[2]; week 6, dogs fed 30 mg
  NK cell activity: significantly higher than control
[2]; week 12, 20 mg
  NK cell cytotoxic activity: higher NK cell cytotoxic activity than control
[2]; week 16 (trend as week 12: 20 mg higher, 40 mg not)
  NK cell cytotoxic activity: same trend continued through week 16
[3]; after vaccination, wk 12
  DTH response with dietary astaxanthin: somewhat diminished
[3]; wk 8, 72 h post-injection, cats fed 10 mg
  skin induration response to vaccine: significant enhancement
[3]; wk 8, cats fed 5 or 10 mg
  DTH response to con A: higher DTH response to con A at 24 and 48 h
[3]; wk 8, post-injection
  time of maximal skin induration response to vaccine: 72 h
[3]; wk 8, pre-vaccination
  DTH response to nonspecific (con A) antigenic challenge: stimulated DTH response; also recorded: increased DTH response
  DTH response to specific (vaccine) antigenic challenge: stimulated DTH response; also recorded: increased DTH response
[3]; wk 12
  DTH response to con A: significant only with 1 mg astaxanthin
[3]; wk 12, cats fed 10 mg
  DTH response to vaccine: still showed enhanced DTH response to vaccine, but at 24 h after injection
[4]; at week 8
  plasma astaxanthin concentrations: rapid initial increase
[4]; cats fed 1, 5 or 10 mg daily
  plasma astaxanthin concentrations: generally a dose-dependent increase; also recorded: dose-related increase in plasma astaxanthin
[4]; week 8 through week 12
  plasma astaxanthin: continued to increase, albeit more gradually
